# Assay results from US20230157952A1, “METHOD FOR IMPROVING THE STABILITY OF A PHARMACEUTICAL COMPOSITION COMPRISING A HIGH PENETRATION DRUG, AND THE PHARMACEUTICAL COMPOSITION OBTAINED THEREFROM” (Techfields Inc., priority 2020, published 2023).
# Assay: Effect of temperature (and pH) on the stability of the solution (purity)
# Type: physicochemical
# Conditions: 7% solution in water
smiles,measurement,setting,value
CCN(CC)CCOC(=O)CCc1ccc2cc(OC)ccc2c1.Cl,Purity(%) at day 0,"pH 1.0, day 0",98.0 ± 0.3%
same,Purity(%) at day 21 (5° C.),"pH 1.0, day 21, 5° C.",92.7 ± 0.3%
same,Purity(%) at day 21 (25° C.),"pH 1.0, day 21, 25° C.",69.1 ± 0.3%
same,Purity(%) at day 21 (40° C.),"pH 1.0, day 21, 40° C.",16.3 ± 0.3%
same,Purity (%) at day 21 (60° C.),"pH 1.0, day 21, 60° C.",0%
same,Purity(%) at day 0,"pH 2.0, day 0",98.1 ± 0.3%
same,Purity(%) at day 21 (5° C.),"pH 2.0, day 21, 5° C.",95.9 ± 0.3%
same,Purity(%) at day 21 (25° C.),"pH 2.0, day 21, 25° C.",83.5 ± 0.3%
same,Purity(%) at day 21 (40° C.),"pH 2.0, day 21, 40° C.",27.5 ± 0.3%
same,Purity (%) at day 21 (60° C.),"pH 2.0, day 21, 60° C.",0%
same,Purity(%) at day 0,"pH 3.0, day 0",98.3 ± 0.2%
same,Purity(%) at day 21 (5° C.),"pH 3.0, day 21, 5° C.",97.4 ± 0.3%
same,Purity(%) at day 21 (25° C.),"pH 3.0, day 21, 25° C.",94.6 ± 0.2%
same,Purity(%) at day 21 (40° C.),"pH 3.0, day 21, 40° C.",49.3 ± 0.2%
same,Purity (%) at day 21 (60° C.),"pH 3.0, day 21, 60° C.",0%
same,Purity(%) at day 0,"pH 3.7, day 0",98.4 ± 0.2%
same,Purity(%) at day 21 (5° C.),"pH 3.7, day 21, 5° C.",97.7 ± 0.2%
same,Purity(%) at day 21 (25° C.),"pH 3.7, day 21, 25° C.",97.3 ± 0.2%
same,Purity(%) at day 21 (40° C.),"pH 3.7, day 21, 40° C.",59.9 ± 0.2%
same,Purity (%) at day 21 (60° C.),"pH 3.7, day 21, 60° C.",19.3 ± 0.3%
same,Purity(%) at day 0,"pH 4.0, day 0",98.5 ± 0.1%
same,Purity(%) at day 21 (5° C.),"pH 4.0, day 21, 5° C.",98.2 ± 0.2%
same,Purity(%) at day 21 (25° C.),"pH 4.0, day 21, 25° C.",97.5 ± 0.2%
same,Purity(%) at day 21 (40° C.),"pH 4.0, day 21, 40° C.",70.7 ± 0.2%
same,Purity (%) at day 21 (60° C.),"pH 4.0, day 21, 60° C.",23.6 ± 0.3%
same,Purity(%) at day 0,"pH 4.3, day 0",98.5 ± 0.2%
same,Purity(%) at day 21 (5° C.),"pH 4.3, day 21, 5° C.",98.2 ± 0.2%
same,Purity(%) at day 21 (25° C.),"pH 4.3, day 21, 25° C.",97.6 ± 0.1%
same,Purity(%) at day 21 (40° C.),"pH 4.3, day 21, 40° C.",70.1 ± 0.2%
same,Purity (%) at day 21 (60° C.),"pH 4.3, day 21, 60° C.",27.7 ± 0.2%
same,Purity(%) at day 0,"pH 4.6, day 0",98.5 ± 0.1%
same,Purity(%) at day 21 (5° C.),"pH 4.6, day 21, 5° C.",98.2 ± 0.2%
same,Purity(%) at day 21 (25° C.),"pH 4.6, day 21, 25° C.",97.5 ± 0.2%
same,Purity(%) at day 21 (40° C.),"pH 4.6, day 21, 40° C.",59.3 ± 0.2%
same,Purity (%) at day 21 (60° C.),"pH 4.6, day 21, 60° C.",22.3 ± 0.2%
same,Purity(%) at day 0,"pH 5.0, day 0",98.4 ± 0.2%
same,Purity(%) at day 21 (5° C.),"pH 5.0, day 21, 5° C.",97.5 ± 0.2%
same,Purity(%) at day 21 (25° C.),"pH 5.0, day 21, 25° C.",94.9 ± 0.2%
same,Purity(%) at day 21 (40° C.),"pH 5.0, day 21, 40° C.",45.8 ± 0.3%
same,Purity (%) at day 21 (60° C.),"pH 5.0, day 21, 60° C.",5.9 ± 0.2%
same,Purity(%) at day 0,"pH 6.0, day 0",98.2 ± 0.2%
same,Purity(%) at day 21 (5° C.),"pH 6.0, day 21, 5° C.",95.3 ± 0.2%
same,Purity(%) at day 21 (25° C.),"pH 6.0, day 21, 25° C.",88.8 ± 0.2%
same,Purity(%) at day 21 (40° C.),"pH 6.0, day 21, 40° C.",28.6 ± 0.2%
same,Purity (%) at day 21 (60° C.),"pH 6.0, day 21, 60° C.",0%
same,Purity(%) at day 0,"pH 7.0, day 0",98.0 ± 0.3%
same,Purity(%) at day 21 (5° C.),"pH 7.0, day 21, 5° C.",90.2 ± 0.3%
same,Purity(%) at day 21 (25° C.),"pH 7.0, day 21, 25° C.",60.9 ± 0.2%
same,Purity(%) at day 21 (40° C.),"pH 7.0, day 21, 40° C.",17.4 ± 0.3%
same,Purity (%) at day 21 (60° C.),"pH 7.0, day 21, 60° C.",0%
same,Purity(%) at day 0,"pH 8.0, day 0",97.7 ± 0.3%
same,Purity(%) at day 21 (5° C.),"pH 8.0, day 21, 5° C.",79.7 ± 0.3%
same,Purity(%) at day 21 (25° C.),"pH 8.0, day 21, 25° C.",49.9 ± 0.3%
same,Purity(%) at day 21 (40° C.),"pH 8.0, day 21, 40° C.",0%
same,Purity (%) at day 21 (60° C.),"pH 8.0, day 21, 60° C.",0%
CCN(CC)CCOC(=O)COc1nn(Cc2ccccc2)c2ccccc12.Cl,Purity(%) at day 0,"pH 1.0, day 0",97.5 ± 0.3%
same,Purity(%) at day 21 (5° C.),"pH 1.0, day 21, 5° C.",89.9 ± 0.3%
same,Purity(%) at day 21 (25° C.),"pH 1.0, day 21, 25° C.",63.5 ± 0.3%
same,Purity(%) at day 21 (40° C.),"pH 1.0, day 21, 40° C.",9.1 ± 0.3%
same,Purity (%) at day 21 (60° C.),"pH 1.0, day 21, 60° C.",0%
same,Purity(%) at day 0,"pH 2.0, day 0",97.7 ± 0.2%
same,Purity(%) at day 21 (5° C.),"pH 2.0, day 21, 5° C.",93.0 ± 0.2%
same,Purity(%) at day 21 (25° C.),"pH 2.0, day 21, 25° C.",77.8 ± 0.3%
same,Purity(%) at day 21 (40° C.),"pH 2.0, day 21, 40° C.",19.6 ± 0.3%
same,Purity (%) at day 21 (60° C.),"pH 2.0, day 21, 60° C.",0%
same,Purity(%) at day 0,"pH 3.0, day 0",97.8 ± 0.2%
same,Purity(%) at day 21 (5° C.),"pH 3.0, day 21, 5° C.",96.8 ± 0.2%
same,Purity(%) at day 21 (25° C.),"pH 3.0, day 21, 25° C.",91.3 ± 0.2%
same,Purity(%) at day 21 (40° C.),"pH 3.0, day 21, 40° C.",40.4 ± 0.2%
same,Purity (%) at day 21 (60° C.),"pH 3.0, day 21, 60° C.",0%
same,Purity(%) at day 0,"pH 3.7, day 0",97.9 ± 0.1%
same,Purity(%) at day 21 (5° C.),"pH 3.7, day 21, 5° C.",97.5 ± 0.1%
same,Purity(%) at day 21 (25° C.),"pH 3.7, day 21, 25° C.",95.6 ± 0.2%
same,Purity(%) at day 21 (40° C.),"pH 3.7, day 21, 40° C.",55.6 ± 0.2%
same,Purity (%) at day 21 (60° C.),"pH 3.7, day 21, 60° C.",8.5 ± 0.2%
same,Purity(%) at day 0,"pH 4.0, day 0",98.1 ± 0.1%
same,Purity(%) at day 21 (5° C.),"pH 4.0, day 21, 5° C.",97.6 ± 0.1%
same,Purity(%) at day 21 (25° C.),"pH 4.0, day 21, 25° C.",95.7 ± 0.1%
same,Purity(%) at day 21 (40° C.),"pH 4.0, day 21, 40° C.",57.2 ± 0.2%
same,Purity (%) at day 21 (60° C.),"pH 4.0, day 21, 60° C.",23.2 ± 0.2%
same,Purity(%) at day 0,"pH 4.3, day 0",98.1 ± 0.1%
same,Purity(%) at day 21 (5° C.),"pH 4.3, day 21, 5° C.",97.7 ± 0.2%
same,Purity(%) at day 21 (25° C.),"pH 4.3, day 21, 25° C.",95.5 ± 0.1%
same,Purity(%) at day 21 (40° C.),"pH 4.3, day 21, 40° C.",58.8 ± 0.3%
same,Purity (%) at day 21 (60° C.),"pH 4.3, day 21, 60° C.",25.8 ± 0.2%
same,Purity(%) at day 0,"pH 4.6, day 0",97.9 ± 0.1%
same,Purity(%) at day 21 (5° C.),"pH 4.6, day 21, 5° C.",97.6 ± 0.1%
same,Purity(%) at day 21 (25° C.),"pH 4.6, day 21, 25° C.",95.1 ± 0.1%
same,Purity(%) at day 21 (40° C.),"pH 4.6, day 21, 40° C.",54.7 ± 0.2%
same,Purity (%) at day 21 (60° C.),"pH 4.6, day 21, 60° C.",16.5 ± 0.2%
same,Purity(%) at day 0,"pH 5.0, day 0",97.8 ± 0.2%
same,Purity(%) at day 21 (5° C.),"pH 5.0, day 21, 5° C.",95.9 ± 0.2%
same,Purity(%) at day 21 (25° C.),"pH 5.0, day 21, 25° C.",91.8 ± 0.2%
same,Purity(%) at day 21 (40° C.),"pH 5.0, day 21, 40° C.",36.1 ± 0.2%
same,Purity (%) at day 21 (60° C.),"pH 5.0, day 21, 60° C.",4.2 ± 0.2%
same,Purity(%) at day 0,"pH 6.0, day 0",97.6 ± 0.3%
same,Purity(%) at day 21 (5° C.),"pH 6.0, day 21, 5° C.",93.7 ± 0.2%
same,Purity(%) at day 21 (25° C.),"pH 6.0, day 21, 25° C.",78.9 ± 0.2%
same,Purity(%) at day 21 (40° C.),"pH 6.0, day 21, 40° C.",18.5 ± 0.2%
same,Purity (%) at day 21 (60° C.),"pH 6.0, day 21, 60° C.",0%
same,Purity(%) at day 0,"pH 7.0, day 0",97.5 ± 0.3%
same,Purity(%) at day 21 (5° C.),"pH 7.0, day 21, 5° C.",89.3 ± 0.2%
same,Purity(%) at day 21 (25° C.),"pH 7.0, day 21, 25° C.",59.7 ± 0.3%
same,Purity(%) at day 21 (40° C.),"pH 7.0, day 21, 40° C.",7.1 ± 0.3%
same,Purity (%) at day 21 (60° C.),"pH 7.0, day 21, 60° C.",0%
same,Purity(%) at day 0,"pH 8.0, day 0",97.4 ± 0.4%
same,Purity(%) at day 21 (5° C.),"pH 8.0, day 21, 5° C.",77.5 ± 0.3%
same,Purity(%) at day 21 (25° C.),"pH 8.0, day 21, 25° C.",39.8 ± 0.3%
same,Purity(%) at day 21 (40° C.),"pH 8.0, day 21, 40° C.",0%
same,Purity (%) at day 21 (60° C.),"pH 8.0, day 21, 60° C.",0%
